According to patent US6803362B2, “Heterocyclic compounds” (Ortho-McNeil Pharmaceutical inc., priority 2001, dated 2004):

System: Croton Oil Induced Topical Inflammation in Mice
Test: Croton oil induced topical inflammation in mice (ear swelling)
Assay type: in vivo, mouse
Conditions: 10 mg/kg s.c.; vs vehicle group; 6 h
Protocol: Male or female ICR derived mice weighing 22±1 g were used. Space allocation for 5 animals was 45×23×15 cm. Mice were house in APEC R cages. All animals were maintained in a controlled temperature (22° C.-24° C.) and humidity (60%-80%) environment with 12 h light/dark cycles. Free access to standard lab chow for Mice (LabDiet Rodent Diet, PMI Nutrition International, USA) and tap water was granted.
Acetone (Wako, Japan), Croton oil (Sigma, USA), Indomethacin (Sigma, USA) and Pyrogen free saline (Astar, Taiwan).
Groups of 5 ICR derived male mice weighing 22±1 g were used. […] Ear swelling was measured by Dyer model micrometer gauge 6 h after croton oil as an index of inflammation.

CN1CCN(C(=O)c2cc3cc(Cl)ccc3[nH]2)CC1 [Compound 1, (5-Chloro-1H-indol-2-yl)-(4-methyl-piperazin-1-yl)-methanone]
% inhib (ear swelling): (−28%)
